Laboratory results from publication PMC4117522, “Proteasome Inhibitors Alter Levels of Intracellular Peptides in HEK293T and SH-SY5Y Cells” (PLoS ONE, 2014).
Several values for one entry are separate records, joined by “and”; a condition that tells them apart may be missing. Identical values can stand only once.

Tests used:
[1] = target: T1, proteasome (beta 5, chymotrypsin-like activity) in HEK293T cell extract (Homo sapiens, UniProt P20618+P28074); assay: Proteasome activity in HEK293T cell extracts with beta 5-selective substrate Suc-Leu-Leu-Val-Tyr-AMC; format: biochemical
T1 construct: endogenous in cells; host or cells: HEK293T
Method: All enzyme assays described below were performed in the linear range of the assay, as determined from time-course studies. HEK293T cells were lysed by sonication in 50 mM TrisHCl buffer, pH 7.5, containing 40 mM KCl, 5 mM MgCl2, 0.5 mM ATP, and 1 mM DTT (Buffer 1).
To measure proteasome activity, a 1∶50 dilution of the cell extract was pre-incubated with the inhibitor and Buffer 1 for 30 min, followed by addition of 100 µM final concentration of the proteasome substrate succinyl-Leu-Leu-Val-Tyr-7-amino-4-methylcoumarin (Suc-Leu-Leu-Val-Tyr-AMC). After incubation at 37°C for 1 hour, proteasomal activity was quantified by fluorescence measurement of the substrate (380 nm excitation, 460 nm emission).
Figure 2 Inhibition of proteasome activity in HEK293T cells with various proteasome inhibitors. HEK293T cell extract was treated with increasing concentrations of the indicated compound for […] and incubation for 1 hour […]. Enzyme activity was determined by fluorescence measurement of AMC. The resulting activity is expressed as percent enzyme activity relative to the control reaction without inhibitor.

HEK293T cells = assay: Quantitative peptidomics (TMAB isotopic labels, LC-MS/MS) of inhibitor-treated HEK293T cells; format: cell-based, human
Method: HEK293T and SH-SY5Y cells were grown to 80–90% confluence in DMEM and RPMI supplemented with 10% fetal bovine serum and penicillin/streptomycin. A single plate of cells (150 mm×25 mm) was used for each group. At the start of the experiment, media were removed from the plates and cells were washed with DPBS (138 mM NaCl, 8.06 mM Na2HPO4, 2.67 mM KCl, 1.47 mM KH2PO4, 0.9 mM CaCl2 and 0.49 mM MgCl2). This was followed by addition of serum-free media containing the proteasome or aminopeptidase inhibitors, or 0.05% DMSO as a control for the inhibitors that were soluble in DMSO. Each experiment consisted of two control groups and two or three replicate groups of cells treated with one of the inhibitors. The cells were incubated at 37°C for 20 minutes, following which media containing the inhibitor was removed, cells were washed with DPBS, detached from the plate by scraping into DPBS (without trypsin), and centrifuged at 800×g for 5 min. The wash buffer was supplemented with the appropriate inhibitor at the same concentration as used for the treatment, thereby ensuring that the changes induced in peptide levels were not reversed during harvesting of cells due to possible dissociation of the reversible inhibitors. The wash time (including centrifugation) was 15 minutes, for a total treatment time of 35 minutes. After centrifugation, the cell pellet was resuspended in 1 ml of 80°C water and incubated in an 80°C water bath for 20 minutes to inactivate proteases. The mixture was again centrifuged (13,000×g, 30 min, 4°C) and was stored at −80°C overnight. For peptide extraction, the samples were thawed and centrifuged again. The lysate was subsequently cooled on ice and acidified with HCl to a final concentration of 10 mM. After 15 min incubation on ice, the lysate was centrifuged at 13,000×g for 30 min at 4°C. To the supernatant, 250 µL of dibasic sodium phosphate (0.4 M, pH 9.5) was added and the mixture was stored at −80°C until labeling.
The labeling protocol has been earlier described in detail. Each group within an experiment (control/treated) was labeled with a different isotopic tag. The TMAB-NHS labels were dissolved in DMSO to a concentration of 400 µg/µL and 15 mg of label was used per 150 mm plate of cells. […] At the beginning, the pH of the peptide extract was adjusted to 9.5 with 1 M NaOH. Labeling was performed over 8 rounds; 4.69 µL of the label was added to the extract every 20 min. The pH was measured between each round and if necessary, brought back to 9.5 for the first five rounds. For rounds 6–8, the pH was not adjusted after the addition of the TMAB-NHS reagent. After the final round of label addition, the pH was adjusted to 9.5 again and the extracts were incubated at room temperature for 90 min. Thereafter, 30 µL of 2.5 M glycine was added to quench any unreacted label. Following 40 min incubation at room temperature, the labeled extracts for a single experiment were pooled and filtered through Amicon Ultracel-10 K units. It is important to ensure that only N-terminal amines and lysine side-chain amines of peptides are TMAB-labeled and not tyrosines. To hydrolyze any labeled tyrosine, 30 µL of a 2 M solution of hydroxylamine hydrochloride (pH 3.7) was added over three rounds to the pooled and filtered sample. The pH was measured after the addition of hydroxylamine and adjusted to 9.0 with 1 M NaOH. The samples were desalted through PepClean C-18 spin columns (Thermo Scientific, Rockford, IL, USA) by following manufacturer’s instructions. Peptides were eluted using 160 µL of 0.5% TFA and 70% acetonitrile, frozen at −80°C and then lyophilized in a vacuum centrifuge and stored at −80°C until analysis by mass spectrometry.
The LC-MS/MS experiments were performed on a Synapt G2 mass spectrometer coupled to a NanoAcquity capillary liquid chromatography system (Waters Co., Milford, MA, USA).

CN1C/C(=C/c2ccc(B(O)O)cc2)C(=O)/C(=C\c2ccc(B(O)O)cc2)C1 [AM114, reference compound]
potency relative to clasto-Lactacystin β-lactone (fold less potent) ([1]; Suc-Leu-Leu-Val-Tyr-AMC): approximately 10 fold | inhibition of proteasome activity at the highest concentration tested ([1]; highest concentration tested): ≤ 35% | Relative Levels of peptide ADKVPKTAENFRAL (PPIA) (HEK293T cells; 1 uM, 35', HEK): 1.29 and 0.68 and 0.72 | Relative Levels of peptide AGAAVDELGKVLTPTQV (PEBP1) (HEK293T cells; 1 uM, 35', HEK): 1.53 and 0.85 | Relative Levels of peptide AKADGIVSKNF (RPS21) (HEK293T cells; 1 uM, 35', HEK): 0.95 and 0.82 and 0.98 | Relative Levels of peptide APIKVGDAIPAVEVF (PRDX5) (HEK293T cells; 1 uM, 35', HEK): 1.44 and 0.88 | Relative Levels of peptide APPTAYIDFARQK (TPI1) (HEK293T cells; 1 uM, 35', HEK): 1.67 and 1.17 | Relative Levels of peptide ASQPDVDGFLVGGASLKPEFVDIINAKQ (TPI1) (HEK293T cells; 1 uM, 35', HEK): 0.84 and 1.26 and 1.47 | Relative Levels of peptide AVDGEPLGRVSF (PPIA) (HEK293T cells; 1 uM, 35', HEK): 1.20 and 0.93 and 0.87 | Relative Levels of peptide Ac-AAPVDLELKKAFTEL (PFDN1) (HEK293T cells; 1 uM, 35', HEK): 1.09 and 0.91 and 0.97 | Relative Levels of peptide Ac-AEEGIAAGGVMDVNTALQEVLKT (RPS12) (HEK293T cells; 1 uM, 35', HEK): 0.90 and 1.10 | Relative Levels of peptide Ac-ANLERTFIAIKPDGV (NME2) (HEK293T cells; 1 uM, 35', HEK): 1.00 and 1.33 | Relative Levels of peptide Ac-ASKRALVIL (PARK7) (HEK293T cells; 1 uM, 35', HEK): 1.00 | Relative Levels of peptide Ac-ASKRALVILA (PARK7) (HEK293T cells; 1 uM, 35', HEK): 0.86 and 1.00 | Relative Levels of peptide Ac-MDTSRVQPIKL (RPS28) (HEK293T cells; 1 uM, 35', HEK): 0.94 and 1.00 | Relative Levels of peptide Ac-MDTSRVQPIKLAR (RPS28) (HEK293T cells; 1 uM, 35', HEK): 1.18 and 1.12 and 1.00 | Relative Levels of peptide Ac-MDTSRVQPIKLARVTKV (RPS28) (HEK293T cells; 1 uM, 35', HEK): 1.29 and 1.14 | Relative Levels of peptide Ac-SSEEGKLFVGGLNF (RBM3) (HEK293T cells; 1 uM, 35', HEK): 0.90 and 1.03 | Relative Levels of peptide Ac-SYGRPPPDVEGMTSLKVDNL (SRSF2) (HEK293T cells; 1 uM, 35', HEK): 0.91 and 1.06 and 1.09 | Relative Levels of peptide Ac-[…] (COX6B1) (HEK293T cells; 1 uM, 35', HEK): 1.03 and 0.97 | Relative Levels of peptide GESDDSILRLAKADGIVSKNF (RPS21) (HEK293T cells; 1 uM, 35', HEK): 1.09 and 0.90 and 0.85 | Relative Levels of peptide GFGDLKSPAGLQVL (EEF1B2) (HEK293T cells; 1 uM, 35', HEK): 1.74 and 1.18 | Relative Levels of peptide GISTPEELGLDKV (COX5A) (HEK293T cells; 1 uM, 35', HEK): 1.60 and 1.00 | Relative Levels of peptide KHTGPGILSM (PPIA) (HEK293T cells; 1 uM, 35', HEK): 1.13 and 1.00 and 0.92 | Relative Levels of peptide PGIVELPTLEEL (NDUFA8) (HEK293T cells; 1 uM, 35', HEK): 1.07 and 0.80 and 0.67 | Relative Levels of peptide SLGELIGTLNA (TPI1) (HEK293T cells; 1 uM, 35', HEK): 1.06 and 0.59 and 0.88 | Relative Levels of peptide VNPTVFFDI (PPIA) (HEK293T cells; 1 uM, 35', HEK): 1.20 and 0.67 and 0.80 | change in levels of intracellular peptides (peptidome) (HEK293T cells; HEK293T cells, 35 min, 2.5 µM MG132, 1 µM other inhibitors): did not produce a substantial change in levels of peptides
